Reference: publication PMC9502466, “Identification of SARS-CoV-2 Main Protease Inhibitors from a Library of Minor Cannabinoids by Biochemical Inhibition Assay and Surface Plasmon Resonance Characterized Binding Affinity” (Molecules, 2022)
Several values for one entry are separate records, joined by “and”; a condition that tells them apart may be missing. Identical values can stand only once. Like-named read-outs stand apart in the source and are kept apart here.

Key:
[1] = target: T1, SARS-CoV-2 M^pro (Severe acute respiratory syndrome coronavirus 2, UniProt P0DTD1); test: biochemical; settings: for inhibition at 10 µM: read-out: inhibition rate of SARS-CoV-2 M^pro activity, 10 μM
[2] = test system: pseudovirus expressing the SARS-CoV-2 spike protein; settings: cited from earlier work
[3] = target: T1, SARS-CoV-2 M^pro; set-up: method as in PMID 33290767; settings: in vitro, cited from earlier work

Compound: CCCCCc1cc(O)c(C/C=C(\C)CCC=C(C)C)c(O)c1C(=O)O [CBGA, cannabigerolic acid]
- inhibition rate of SARS-CoV-2 M^pro activity ([1]; 10 μM): > 70%
- inhibition at 12.5 µM ([1]; 12.5 μM): 6%
- inhibition at 25 µM ([1]; 25 μM): 8%
- inhibition at 50 µM [1]: 18.5%
- inhibition at 100 µM ([1]; 100 μM): 18.2%
- inhibition at 250 µM [1]: 72.9%
- IC50 [1]: 14.4 µM and 20.7 µM
- inhibition at 10 µM [1]: 72.9%
- effect on pseudovirus infection (in words) [2]: block the infection

Compound: CCCCCc1cc(O)c2c(c1)OC(C)(CCC=C(C)C)C=C2 (centres unmarked) [CBC, cannabichromene]
- inhibition at 10 µM [1]: 42.1%

Compound: C=C(C)[C@@H]1CCC(C)=C[C@H]1c1c(O)cc(CCCCC)cc1O [CBD, cannabidiol, reference compound]
- inhibition at 50 µM [1]: 13.2%
- inhibition at 250 µM [1]: 23%
- inhibition at 10 µM [1]: 8.74%

Compound: C=C(C)[C@@H]1CCC(C)=C[C@H]1c1c(O)cc(CCCCCCC)cc1O [CBDP, cannabidiphorol]
- inhibition at 10 µM [1]: 6.55%

Compound: C=C(C)[C@@H]1C[C@H](O)C(C)=C[C@H]1c1c(O)cc(CCCCC)cc1O [6α-OH-CBD, 6α-hydroxy cannabidiol]
- inhibition at 10 µM [1]: 14.7%

Compound: CCCCCc1cc2c(c(O)c1C(=O)O)C=CC(C)(CCC=C(C)C)O2 (centres unmarked) [CBCA, cannabichromenic acid]
- inhibition at 10 µM [1]: < 10%

Compound: C=C(C)[C@@H]1CCC(C)=C[C@H]1c1c(O)cc(CCCCC)c(C(=O)OC)c1O [CBDAME, cannabidiolic acid methyl ester]
- inhibition at 10 µM [1]: 13.7%

Compound: Cc1cc(C(=O)N[C@@H](C)C(=O)N[C@H](C(=O)N[C@@H](CC(C)C)C(=O)N[C@H](/C=C/C(=O)OCc2ccccc2)C[C@@H]2CCNC2=O)C(C)C)no1 [M^pro N3, reference compound]
- inhibition rate of SARS-CoV-2 M^pro activity ([1]; 10 µM): > 98%

Compound: CCCCc1cc(O)c2c(c1)OC(C)(C)[C@@H]1CCC(C)=C[C@@H]21 [THCB, Δ^9-tetrahydrocannabibutol]
- inhibition rate of SARS-CoV-2 M^pro activity ([1]; 10 μM): > 70%
- IC50 [1]: 3.62 µM
- inhibition at 10 µM [1]: 81%

Compound: CCCCCc1cc(O)c2c(c1)OC(C)(C)[C@@H]1CCC(C)=C[C@@H]21 [Δ^9-THC, Δ^9-tetrahydrocannabinol, reference compound]
- IC50 ([3]; read-out: IC50): 10.2 µM

Compound: CCCc1cc2c(c(O)c1C(=O)O)C=CC(C)(CCC=C(C)C)O2 (centres unmarked) [CBCVA, cannabichromevarinic acid]
- inhibition at 10 µM [1]: < 10%

Compound: C=C(C)[C@@H]1CCC(C)=C[C@H]1c1c(O)cc(CCCC)cc1O [CBDB, cannabidibutol]
- inhibition at 10 µM [1]: 19.4%

Compound: CCCCCc1cc(O)c2c(c1)OC1(C)CCC3C1C2C3(C)C (centres unmarked) [CBL, cannabicyclol]
- inhibition at 10 µM [1]: 31.1%

Compound: 11-nor-Δ^8-tetrahydrocannabinol-9-Carboxylic acid [11-OH-THC]
- inhibition rate of SARS-CoV-2 M^pro activity ([1]; 10 µM): 56.0%

Compound: CCCCCc1cc(O)c2c(c1)OC(C)(C)c1ccc(C)cc1-2 [CBN, cannabinol]
- IC50 [3]: 7.91 µM
- inhibition at 10 µM [1]: 28.7%

Compound: O=C[C@H](C[C@@H]1CCNC1=O)NC(=O)[C@H](Cc1cccc(F)c1)NC(=O)c1cc2ccccc2[nH]1 [M^pro 11b, reference compound]
- inhibition rate of SARS-CoV-2 M^pro activity ([1]; 10 µM): > 98%

Compound: C=C(C)c1ccc(C)cc1-c1c(O)cc(CCCCC)cc1O [CBND, cannabinodiol]
- inhibition at 10 µM [1]: < 10%

Compound: C=C(C)[C@@H]1CCC(C)=C[C@H]1c1c(O)cc(CCCCC)c(C(=O)O)c1O [CBDA, cannabidiolic acid]
- inhibition at 2 µM ([1]; 2 μM): 11.9%
- inhibition at 50 µM [1]: 84.8%
- inhibition at 250 µM [1]: 101%
- inhibition at 10 µM [1]: 29.4%
- effect on pseudovirus infection (in words) [2]: block the infection

Compound: CCCCCc1cc2c3c(c1)OC(C)(C)C1CCC(C)(CC31)O2 (centres unmarked) [CBT, cannabicitran]
- inhibition at 10 µM [1]: < 10%

Compound: C=C(C)[C@@H]1CCC(C)=C[C@H]1c1c(O)cc(CCC)cc1O [CBDV, cannabidivarin]
- inhibition at 10 µM [1]: 6.87%

Compound: CCCCCc1cc(O)c(C/C=C(\C)CCC=C(C)C)c(O)c1 [CBG, cannabigerol]
- inhibition at 10 µM [1]: 25.4%
